Reference: patent publication US9475842B2, “Hexadepsipeptide analogues as anticancer compounds” (PIRAMAL ENTERPRISES LIMITED, priority 2012, dated 2016)
Where two headings read alike, the source gives them in different places.

Key:
[1] = test system: MCF-10A, a non-tumourigenic cell line; test: Monolayer assay (CCK-8 cytotoxicity), normal cells; assay type: cell-based; conditions: Table 6
Experimental: (§1) The assays were designed as in the reference, BMC Cancer, 2010, 10, 610, 1-11; the disclosure of which is incorporated by reference for the teaching of the assay.
(§2) Human tumour cell lines: Panc-1 (Pancreatic Cancer), HCT 116 (Colorectal Cancer), ACHN (Renal Cell Carcinoma), Calu-1 (Lung Carcinoma), MiaPaca2 (Pancreatic Cancer), FADU (Head and Neck Cancer), PC3 (prostate Cancer), G361 (Melanoma), MDA-MB435S (Melanoma), HeLa (Cervical Cancer) were grown in Minimal Essential Media with Eagle's Basal Salts (MEM-EBS) obtained from AMIMED (BioConcept-Switzerland). Tumour cell lines: MDA-MB231 (Breast Cancer), JURKAT (T cell leukaemia), H460 (Small Cell Lung Cancer) were cultured in RPMI 1640 (AMIMED, BioConcept, Switzerland) medium. All tumour cell lines were supplemented with 10% Foetal Bovine Serum (FBS) (GIBCO), 1% Penicillin/Streptomycin (Sigma) and 1% Anti-Anti (GIBCO) and grown in T-175 tissue culture flasks (Nunc). MCF-10A, a non-tumourigenic cell line, was cultured in Mammary Epithelial Basal Medium (MEBM) with all standard additions (Lonza, Catalog. No. CC-3150). All cells were grown in 5% CO2 incubator at 37° C. Cells were passaged at 80-90% confluence. Adherent cells were trypsinised using Trypsin-EDTA (Sigma) and maintained. All cell lines were purchased from ATCC (Rockville, Md., USA).
(§3) Compound of Formula (1a) [described in example 7] was dissolved in DMSO to give a required stock solution of 20 mM. Eight different concentrations of the compound of Formula (1a) were prepared by serial dilution of stock solution finally resulting in a (compared to the test concentration) 200-fold higher concentration. Compound of Formula (1a) was tested at the concentration of 0.0001 μM, 0.001 μM, 0.01 μM, 0.03 μM, 0.1 μM, 0.3 μM, 1 μM and 3 μM respectively. Each concentration was evaluated in triplicate.
(§4) Method for determination of IC50 of the compound of Formula (1a): • a) Different cancer/normal cells were seeded at a density of 3000 cells/200 μL well, in a tissue culture grade 96 well plate and allowed them to recover for 24 hrs in a humidified 5±0.2% CO2 incubator at 37±0.5° C. • b) After 24 hrs, 1 μL of 200× (200 times higher than required concentration is denoted as 200×) compound of Formula (1a), dissolved in DMSO, was added to the above tissue culture plate seeded with cancer/normal cells. The final concentration of DMSO was 0.5% in wells. DMSO was used as a vehicle control. • c) After 24 hrs the plate was removed from CO2 incubator and 5 μL of CCK-8 (Dojindo Molecular Technologies, Inc. USA, catalog, no. CK04-20) per well was added. • d) The plate was then placed at 37° C. for 2 hrs. • e) The absorbance was recorded at 450 nm. • f) The percent cytotoxicity was calculated using the following formula
(§5) The IC50 value was estimated by visual inspection of the concentration-effect curve. For calculation of mean IC50 values over the fourteen cell lines as tested, the geometric mean was selected.
(§6) The assays were designed as described above in example 16.
(§7) The IC50 value was estimated by visual inspection of the concentration-effect curve. For calculation of mean IC50 values over the six cell lines (PC3, MDA MB, HCT116, MCF7, MIAPaCa2, MCF10A) as tested, the geometric mean was selected.

PC3 (prostate Cancer) = test: Monolayer assay (CCK-8 cytotoxicity); assay type: cell-based, human; conditions: PC3, Table 6, read-out: IC50 (μM) in different cancer cell lines: PC3
Experimental: as §1, §2, §3, §4, §5, §6, §7

[2] = test system: HCT 116 (Colorectal Cancer); test: Monolayer assay (CCK-8 cytotoxicity); assay type: cell-based, human; conditions: HCT116, Table 6, read-out: IC50 (μM) in different cancer cell lines: HCT116
Experimental: as §1, §2, §3, §4, §5, §6, §7

[3] = test system: MDA-MB231 (Breast Cancer); test: Monolayer assay (CCK-8 cytotoxicity); assay type: cell-based, human; conditions: MDA MB-231, Table 6, read-out: IC50 (μM) in different cancer cell lines: MDA MB-231
Experimental: as §1, §2, §3, §4, §5, §6, §7

MCF7 = test: Monolayer assay (CCK-8 cytotoxicity); assay type: cell-based; conditions: Table 6, read-out: IC50 (μM) in different cancer cell lines: MCF7
Experimental: as §1, §4, §6, §7

different cancer cells = test: Monolayer assay, range over the cancer cell lines tested; assay type: cell-based; conditions: Homo sapiens; range over the cancer cell lines of Table 6
Experimental: as §1, §2, §3, §4, §5, §6, §7

[4] = Solubility (physical properties); assay type: physicochemical
[5] = read-out: IC50 (μM) in different cancer cell lines: MCF10A, MCF10A normal cells
[6] = Homo sapiens, MCF-10A, read-out: IC50 (μM) in different cancer cell lines: MCF10A, MCF10A normal cells
[7] = MCF10A normal cells, read-out: IC50 (μM) in different cancer cell lines: MCF10A

Compound	IC50 [1, 5] [µM]	IC50 (PC3 (prostate Cancer); Homo sapiens) [µM]	IC50 ([2]; Homo sapiens, HCT-116) [µM]	IC50 ([3]; Homo sapiens) [µM]	IC50 (MCF7; Homo sapiens) [µM]	IC50 (different cancer cells) [µM]	IC50 [1, 6] [µM]	IC50 [1, 7] [µM]	IC50 (PC3 (prostate Cancer)) [µM]	IC50 [2] [µM]	IC50 [3] [µM]	IC50 (MCF7) [µM]	Solubility in organic solvents ([4]; chloroform, ethyl acetate and methanol)	Solubility in water ([4]; water)
CC(C)CC1CCC(O)(C(C)(O)C(=O)NC2C(=O)N3NCCCC3C(=O)NC(C)C(=O)NCC(=O)N3NCCCC3C(=O)NC(C)C(=O)OC2C(C)C)OC1C (stereo not shown) [Compound 6, 2-hydroxy-2-(2-hydroxy-5-isobutyl-6-methyltetrahydro-2H-pyran-2-yl)-N-(22-isopropyl-7,19-dimethyl-5,8,11,17,20,24-hexaoxotetracosahydrodipyridazino[6,1-f:6′,1′-o][1,4,7,10,13,16]oxapentaazacyclononadecin-23-yl)propanamide]	0.819	0.998	0.284	0.343	0.977	0.009 to 1.04	–	–	–	–	–	–	–	–
CC(C)CC1CCC(O)(C(C)(O)C(=O)NC2C(=O)N3N=CCCC3C(=O)N(O)C(C)C(=O)NCC(=O)N3N=CCCC3C(=O)N(O)C(C)C(=O)OC2C(C)C)OC1C (stereo not shown) [Compound 5, N-(6,18-dihydroxy-22-isopropyl-7,19-dimethyl-5,8,11,17,20,24-hexaoxo-3,4,4a,5,6,7,8,9,10,11,15,16,16a,17,18,19,20,22,23,24-icosahydrodipyridazino[6,1-f:6′,1′-o][1,4,7,10,13,16]oxapentaazacyclononadecin-23-yl)-2-hydroxy-2-(2-hydroxy-5-isobutyl-6-methyltetrahydro-2H-pyran-2-yl)propanamide]	< 0.01	–	< 0.01	0.012	0.018	0.009 to 1.04	0.01 to 0.83	–	–	–	–	–	–	–
CC(=O)ON1C(=O)C2CCCNN2C(=O)C(NC(=O)C(C)(O)C2(O)CCC(CC(C)C)C(C)O2)C(C(C)C)OC(=O)C(C)N(O)C(=O)C2CCCNN2C(=O)CNC(=O)C1C (stereo not shown) [Compound 7, 18-hydroxy-23-(2-hydroxy-2-(2-hydroxy-5-isobutyl-6-methyltetra hydro-2H-pyran-2-yl)propanamido)-22-isopropyl-7,19-dimethyl-5,8,11,17,20,24-hexaoxo icosahydrodipyridazino[6,1-f:6′,1′-o[]1,4,7,10,13,16]oxapentaazacyclononadecin-6(7H,13H,22H)-yl acetate]	–	–	–	–	–	–	–	0.83	0.36	0.257	0.32	0.843	–	–
CON1C(=O)C2CCCNN2C(=O)C(NC(=O)C(C)(O)C2(O)CCC(CC(C)C)C(C)O2)C(C(C)C)OC(=O)C(C)N(OC)C(=O)C2CCCNN2C(=O)CNC(=O)C1C (stereo not shown) [Compound 2, 2-hydroxy-2-(2-hydroxy-5-isobutyl-6-methyltetrahydro-2H-pyran-2-yl)-N-(22-isopropyl-6,18-dimethoxy-7,19-dimethyl-5,8,11,17,20,24-hexaoxotetracosahydrodipyridazino[6,1-f:6′,1′-o][1,4,7,10,13,16]oxapentaazacyclononadecin-23-yl)propanamide]	0.691	1.04	0.635	0.8	0.826	0.009 to 1.04	–	–	–	–	–	–	–	–
CC(C)CC1CCC(O)(C(C)(O)C(=O)NC2C(=O)N3N=CCCC3C(=O)N(O)C(C)C(=O)NCC(=O)N3NCCCC3C(=O)N(O)C(C)C(=O)OC2C(C)C)OC1C (stereo not shown) [Formula (1b), N-(6,18-dihydroxy-22-isopropyl-7,19-dimethyl-5,8,11,17,20,24-hexaoxo-3,4,4a,5,6,7,8,9, 10,11,13,14,15, 16,16a, 17,18,19,20,22,23,24-docosahydrodipyridazino[6,1-f:6′,1′-o][1,4,7,10, 13,16]oxapentaazacyclononadecin-23-yl)-2-hydroxy-2-(2-hydroxy-5-isobutyl-6-methyltetra hydro-2H-pyran-2-yl)propanamide]	–	0.035	0.032	0.018	0.071	0.018 to 0.071	0.03	–	–	–	–	–	Soluble in chloroform, ethyl acetate and methanol and	insoluble in water
CC(C)CC1CCC(O)(C(C)(O)C(=O)NC2C(=O)N3NCCCC3C(=O)N(OC(=O)CCN)C(C)C(=O)NCC(=O)N3NCCCC3C(=O)N(O)C(C)C(=O)OC2C(C)C)OC1C (stereo not shown) [Compound 4, 18-hydroxy-23-(2-hydroxy-2-(2-hydroxy-5-isobutyl-6-methyltetra hydro-2H-pyran-2-yl)propanamido)-22-isopropyl-7,19-dimethyl-5,8,11,17,20,24-hexaoxo icosahydrodipyridazino[6,1-f:6′,1′-o][1,4,7,10,13,16]oxapentaazacyclononadecin-6(7H,13H,22H)-yl 3-aminopropanoate]	–	–	–	–	–	–	–	< 0.3	–	0.17	0.2	0.03	–	–
CC(C)CC1CCC(O)(C(C)(O)C(=O)NC2C(=O)N3NCCCC3C(=O)N(OC(=O)CCNC(=O)OCc3ccccc3)C(C)C(=O)NCC(=O)N3NCCCC3C(=O)N(O)C(C)C(=O)OC2C(C)C)OC1C (stereo not shown) [Compound 3, 18-hydroxy-23-(2-hydroxy-2-(2-hydroxy-5-isobutyl-6-methyltetrahydro-2H-pyran-2-yl)propanamido)-22-isopropyl-7,19-dimethyl-5,8,11,17,20,24-hexa oxoicosahydrodipyridazino[6,1-f:6′,1′-o][1,4,7,10,13,16]oxapentaazacyclononadecin-6(7H,13H,22H)-yl 3-(((benzyloxy)carbonyl)amino)propanoate]	0.031	0.044	0.009	0.03	0.025	0.009 to 1.04	–	–	–	–	–	–	–	–
CON1C(=O)C2CCCNN2C(=O)C(NC(=O)C(C)(O)C2(O)CCC(CC(C)C)C(C)O2)C(C(C)C)OC(=O)C(C)N(O)C(=O)C2CCCNN2C(=O)CNC(=O)C1C (stereo not shown) [Compound 1, 2-hydroxy-N-(18-hydroxy-22-isopropyl-6-methoxy-7,19-dimethyl-5,8,11,17,20,24-hexaoxotetracosahydrodipyridazino[6,1-f:6′,1′-o][1,4,7,10,13,16]oxapentaazacyclononadecin-23-yl)-2-(2-hydroxy-5-isobutyl-6-methyltetrahydro-2H-pyran-2-yl) propanamide]	–	–	–	–	–	–	–	0.247	0.502	0.287	0.293	0.355	–	–
